Results reported in PubChem BioAssay (NCI).
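Five concentrations, 48 hours, 96-well plates. At the GI50, growth is halved. At the TGI there is no net growth.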

Experiments:
Test in all cases: NCI anticancer screen, dose series, 48 h
SNB-75 CNS = system: SNB-75 CNS
MDA-MB-435 = system: MDA-MB-435
RPMI-8226 leukemia = system: RPMI-8226 leukemia
COLO 205 colon = system: COLO 205 colon
IGROV1 ovarian = system: IGROV1 ovarian
HCT-116 colon = system: HCT-116 colon
UACC-257 melanoma = system: UACC-257 melanoma
CCRF-CEM leukemia = system: CCRF-CEM leukemia
NCI/ADR-RES ovarian = system: NCI/ADR-RES ovarian
U251 CNS = system: U251 CNS
SK-MEL-5 melanoma = system: SK-MEL-5 melanoma
HCC-2998 colon = system: HCC-2998 colon
RXF 393 renal = system: RXF 393 renal
EKVX NSCLC = system: EKVX NSCLC
M14 melanoma = system: M14 melanoma
T-47D breast = system: T-47D breast
MDA-MB-231 breast = system: MDA-MB-231 breast
KM12 colon = system: KM12 colon
MALME-3M melanoma = system: MALME-3M melanoma
UO-31 renal = system: UO-31 renal
HS 578T breast = system: HS 578T breast
786-0 renal = system: 786-0 renal
HOP-62 NSCLC = system: HOP-62 NSCLC
PC-3 prostate = system: PC-3 prostate
ACHN renal = system: ACHN renal
A498 renal = system: A498 renal
OVCAR-8 ovarian = system: OVCAR-8 ovarian
SF-268 CNS = system: SF-268 CNS
SW-620 colon = system: SW-620 colon
SK-MEL-2 melanoma = system: SK-MEL-2 melanoma
BT-549 breast = system: BT-549 breast
SK-OV-3 ovarian = system: SK-OV-3 ovarian
A549 NSCLC = system: A549 NSCLC
HOP-92 NSCLC = system: HOP-92 NSCLC
NCI-H460 lung = system: NCI-H460 lung
UACC-62 melanoma = system: UACC-62 melanoma
SN12C renal = system: SN12C renal
MOLT-4 leukemia = system: MOLT-4 leukemia
LOX IMVI melanoma = system: LOX IMVI melanoma
OVCAR-4 ovarian = system: OVCAR-4 ovarian
HL-60(TB) leukemia = system: HL-60(TB) leukemia
MCF7 breast = system: MCF7 breast
SNB-19 CNS = system: SNB-19 CNS
OVCAR-5 ovarian = system: OVCAR-5 ovarian
SK-MEL-28 melanoma = system: SK-MEL-28 melanoma
CAKI-1 renal = system: CAKI-1 renal
HCT-15 colon = system: HCT-15 colon
NCI-H23 lung = system: NCI-H23 lung
TK-10 renal = system: TK-10 renal
HT29 colon = system: HT29 colon
K-562 leukemia = system: K-562 leukemia
OVCAR-3 ovarian = system: OVCAR-3 ovarian
SF-295 CNS = system: SF-295 CNS
NCI-H226 lung = system: NCI-H226 lung
NCI-H522 lung = system: NCI-H522 lung
SF-539 CNS = system: SF-539 CNS
DU-145 prostate = system: DU-145 prostate

COc1ccc(Cl)cc1Nc1nc(C(F)(F)F)ccc1C(=O)N/N=C/c1ccccc1Cl
GI50 (SNB-75 CNS): 7.32 µM
TGI (SNB-75 CNS): > 100 µM
GI50 (MDA-MB-435): 2.61 µM
TGI (MDA-MB-435): > 27.7 µM
GI50 (RPMI-8226 leukemia): 2.17 µM
TGI (RPMI-8226 leukemia): 6.81 µM
GI50 (COLO 205 colon): 1.7 µM
TGI (COLO 205 colon): 4.18 µM
GI50 (IGROV1 ovarian): 2.76 µM
TGI (IGROV1 ovarian): > 24.7 µM
GI50 (HCT-116 colon): 2.81 µM
TGI (HCT-116 colon): > 100 µM
GI50 (UACC-257 melanoma): 1.82 µM
TGI (UACC-257 melanoma): 4.62 µM
GI50 (CCRF-CEM leukemia): 0.446 µM
TGI (CCRF-CEM leukemia): 2.79 µM
GI50 (NCI/ADR-RES ovarian): 2.83 µM
TGI (NCI/ADR-RES ovarian): > 28.4 µM
GI50 (U251 CNS): 1.57 µM
TGI (U251 CNS): > 31 µM
GI50 (SK-MEL-5 melanoma): 0.583 µM
TGI (SK-MEL-5 melanoma): 2.96 µM
GI50 (HCC-2998 colon): 1.97 µM
TGI (HCC-2998 colon): 19.2 µM
GI50 (RXF 393 renal): 0.455 µM
TGI (RXF 393 renal): 3.06 µM
GI50 (EKVX NSCLC): 2.04 µM
TGI (EKVX NSCLC): 7.22 µM
GI50 (M14 melanoma): 2.13 µM
TGI (M14 melanoma): 19.4 µM
GI50 (T-47D breast): 1.71 µM
TGI (T-47D breast): 7.68 µM
GI50 (MDA-MB-231 breast): 2.09 µM
TGI (MDA-MB-231 breast): 10.9 µM
GI50 (KM12 colon): 2.81 µM
TGI (KM12 colon): > 28 µM
GI50 (MALME-3M melanoma): 1.75 µM
TGI (MALME-3M melanoma): 9.54 µM
GI50 (UO-31 renal): 3.18 µM
TGI (UO-31 renal): > 26.8 µM
GI50 (HS 578T breast): 3.2 µM
TGI (HS 578T breast): 40.7 µM
GI50 (786-0 renal): 4.66 µM
TGI (786-0 renal): > 23 µM
GI50 (HOP-62 NSCLC): 7.7 µM
TGI (HOP-62 NSCLC): > 29.2 µM
GI50 (PC-3 prostate): 2.84 µM
TGI (PC-3 prostate): > 100 µM
GI50 (ACHN renal): 2.01 µM
TGI (ACHN renal): > 25.4 µM
GI50 (A498 renal): 3.44 µM
TGI (A498 renal): 19.5 µM
GI50 (OVCAR-8 ovarian): 2.4 µM
TGI (OVCAR-8 ovarian): > 31 µM
GI50 (SF-268 CNS): 2.22 µM
TGI (SF-268 CNS): > 23.2 µM
GI50 (SW-620 colon): 3.3 µM
TGI (SW-620 colon): > 100 µM
GI50 (SK-MEL-2 melanoma): 3.45 µM
TGI (SK-MEL-2 melanoma): > 28.4 µM
GI50 (BT-549 breast): 1.79 µM
TGI (BT-549 breast): 8.82 µM
GI50 (SK-OV-3 ovarian): 1.58 µM
TGI (SK-OV-3 ovarian): 12.5 µM
GI50 (A549 NSCLC): 3.53 µM
TGI (A549 NSCLC): 18.5 µM
GI50 (HOP-92 NSCLC): 2.34 µM
TGI (HOP-92 NSCLC): 12.6 µM
GI50 (NCI-H460 lung): 1.13 µM
TGI (NCI-H460 lung): 4.53 µM
GI50 (UACC-62 melanoma): 1.93 µM
TGI (UACC-62 melanoma): 9.83 µM
GI50 (SN12C renal): 2.56 µM
TGI (SN12C renal): > 100 µM
GI50 (MOLT-4 leukemia): 1.88 µM
GI50 (LOX IMVI melanoma): 1.64 µM
TGI (LOX IMVI melanoma): 12.8 µM
GI50 (OVCAR-4 ovarian): 1.93 µM
TGI (OVCAR-4 ovarian): > 100 µM
GI50 (HL-60(TB) leukemia): 2.74 µM
TGI (HL-60(TB) leukemia): > 19.7 µM
GI50 (MCF7 breast): 1.04 µM
TGI (MCF7 breast): 5.34 µM
GI50 (SNB-19 CNS): 2.34 µM
TGI (SNB-19 CNS): > 55.7 µM
GI50 (OVCAR-5 ovarian): 3.55 µM
TGI (OVCAR-5 ovarian): 54 µM
GI50 (SK-MEL-28 melanoma): 4.5 µM
TGI (SK-MEL-28 melanoma): > 100 µM
GI50 (CAKI-1 renal): 0.994 µM
TGI (CAKI-1 renal): 8.19 µM
GI50 (HCT-15 colon): 0.754 µM
TGI (HCT-15 colon): > 63.8 µM
GI50 (NCI-H23 lung): 2.99 µM
TGI (NCI-H23 lung): > 31.4 µM
GI50 (TK-10 renal): 0.442 µM
TGI (TK-10 renal): 4.61 µM
GI50 (HT29 colon): 4.24 µM
TGI (HT29 colon): > 100 µM
GI50 (K-562 leukemia): 10.7 µM
TGI (K-562 leukemia): > 21.8 µM
GI50 (OVCAR-3 ovarian): 1.04 µM
TGI (OVCAR-3 ovarian): 3.75 µM
GI50 (SF-295 CNS): 0.27 µM
TGI (SF-295 CNS): 1.36 µM
GI50 (NCI-H226 lung): 1.45 µM
TGI (NCI-H226 lung): 18.2 µM
GI50 (NCI-H522 lung): 2.74 µM
TGI (NCI-H522 lung): 16 µM
GI50 (SF-539 CNS): 1.85 µM
TGI (SF-539 CNS): 5.03 µM
GI50 (DU-145 prostate): 3.94 µM
TGI (DU-145 prostate): > 25.6 µM
